# Laboratory results taken from patent publication EP0060776B1, “Medicaments for the treatment of obesity and hyperlipoidemia” (SOMACHIM S.A., priority 1981, dated 1982).
# Key:
# [1] = Weekly food consumption of genetically obese and normal Zucker rats; assay type: in vivo, rattes Zucker; parameters: Consommation d'aliments: unit not given here; conditions: for Consommation d'aliments: weekly, treated
# Text: (§1) Les animaux employés sont des rattes Zucker âgées de 7 à 8 semaines au début de l'expérimentation. Les animaux ont été placés en cages individuelles et recevaient ad libitum une alimentation équilibrée et vitaminée spéciale pour rats, identique pour tous les lots. La boisson était également présentée ad libitum. Les lots d'animaux ont été établis de telle sorte que le poids-de départ soit sensiblement identique pour les témoins et les traités, chaque lot comporte 6 animaux.
# (§2) On a administré une dose journalière de 17,5 µg (30n mol) par 100 g. de poids corporel pendant 4 semaines. Les poids moyens des animaux traités et non traités ont été notés chaque fin de semaine chez les témoins et chez les obèses. Les résultats sont rassemblés dans le tableau ci-dessous.
# Par ailleurs, la consommation hebdomadaire d'aliments a été notée et les résultats rassemblés dans le tableau ci-dessus.
# Enfin le tableau suivant rassemble pour chaque semaine l'observation du rapport : • R = (consommation hebdomadaire (CH))/(gain de poids hebdomadaire (GPH)) [formula]
# [2] = Blood cholesterol of the treated Zucker rats; assay type: in vivo, rattes Zucker
# Text: as §1, §2
# La cholestérolémie a été dosée chez les animaux dont les courbes pondérales et de consommation alimentaire ont été rapportées ci-dessus. Les résultats sont les suivants : • Rats normaux non traités 0,9-1 g par litre (2,5 mmol par l.) • Rats normaux traités (4 semaines) 0,9-1 g par litre (2,5 mmol par 1.) • Rats génétiquement obèses non traités • 1,7-1,8 (X = 1,75) g par litre (4,51 mmol par litre) • Rats génétiquement obèses traités (4 semaines) • 1,1 g par litre (2,87 mmol par litre)
# [3] = 30-day repeated-dose toxicity in rats at 1/5 of the DL50; assay type: in vivo
# Text: Par ailleurs, le 1/5 de la dose L 50 a été administré à 20 rats durant 30 jours, 7 jours sur 7. Aucune mort n'a été constatée. […] La formule sanguine est normale.
# [4] = Patch tests in humans; assay type: in vivo, homme; conditions: human
# [5] = Acute oral toxicity (DL50) in the rat; conditions: in vivo
# Text: La toxicité de l'acide 3,5-diiodo-3'-isopropyt-thyroacétique a également été examinée sur le rat.
# [6] = Weight gain of genetically obese and normal Zucker rats, daily gavage for 4 weeks; assay type: in vivo, rattes Zucker
# Text: On a notamment étudié les effets de l'acide 3,5-diiodo-3'-isopropyl-thyroacétique sur la prise de poids de la ratte génétiquement obèse, par administration au moyen d'une sonde oesophagienne et en comparaison avec des rattes normales.
# as §1, §2
# [7] = 5-day tolerance study in obese human volunteers; assay type: in vivo, homme; conditions: 5 obese volunteers, 0,3 mg daily in 3 oral doses, 5 days
# Procedure: On a administré à un groupe de 5 volontaires obèses une dose journalière de 0,3 mg d'acide 3,5- dilodo-3'-isopropylthyroacétique en 3 prises orales, durant une première période de 5 jours durant lesquels la tolérance fut vérifiée.
# [8] = 4-week oral treatment of hospitalised obese patients; assay type: in vivo, homme; conditions: for POIDS Après (J+30): 0,3 mg daily orally, 1 400 cal/j diet
# Procedure: Après cet essai d'autres volontaires obèses ont été traités par l'acide 3,5-dilodo-3'-isopropyl- thyroacétique à la dose journalière de 0,3 mg en 2 prises orales durant 4 semaines. La tolérance fut surveillée très attentivement (malades hospitalisés) et fut parfaite.
# Le poids des 6 patients obèses hospitalisés sous régime hypocalorique, hypoglucidique, hyperproti- dique à 1 400 cal/j et traités comme il est indiqué ci-dessus a régressé. Le tableau ci-après rassemble les résultats obtenus.
# [9] = Magnusson and Kligman sensitisation test; assay type: in vivo, cobaye; conditions: guinea pig
# Text: De plus, un test de Manusson et Kligman a été pratiqué chez le cobaye. Ce test prédictif s'est révélé négatif, c'est-à-dire qu'aucun animal n'a montré une quelconque sensibilisation d'ordre allergique au produit.
# [10] = 6 obese patients, 0,3 mg daily, 4 weeks
smiles,measurement,setting,value
"CC(C)c1cc(Oc2c(I)cc(CC(=O)O)cc2I)ccc1O [acide 3,5-diiodo-3'-isopropyl-thyroacétique]",consommation alimentaire,[1]; normal animals,ne modifie pas la consommation alimentaire
same,consommation alimentaire,[1]; obese animals,réduit celle des animaux obèses
same,effet anorexigène,"[1]; rat, concluded from the ratio weekly consumption / weekly weight gain",aucun effet anorexigène
same,Consommation d'aliments,"[1]; normal Zucker rats (Témoins), day 7, initial mean consumption 78",83
same,Consommation d'aliments,"[1]; normal Zucker rats (Témoins), day 14, initial mean consumption 78",112
same,Consommation d'aliments,"[1]; normal Zucker rats (Témoins), day 21, initial mean consumption 78",120
same,Consommation d'aliments,"[1]; normal Zucker rats (Témoins), day 28, initial mean consumption 78",118
same,Consommation d'aliments,"[1]; obese Zucker rats (Obèses), day 7, initial mean consumption 118",124
same,Consommation d'aliments,"[1]; obese Zucker rats (Obèses), day 14, initial mean consumption 118",131
same,Consommation d'aliments,"[1]; obese Zucker rats (Obèses), day 21, initial mean consumption 118",148
same,Consommation d'aliments,"[1]; obese Zucker rats (Obèses), day 28, initial mean consumption 118",142
same,taux de cholestérol,[2]; animals with normal cholesterol level,n'a pas d'effet
same,cholestérolémie,"[2]; genetically obese rats treated 4 weeks, untreated obese rats 1,7-1,8","1,1 g par litre"
same,cholestérolémie,"[2]; genetically obese rats treated 4 weeks, untreated obese rats 4,51","2,87 mmol par litre"
same,taux de cholestérol,[2]; hypercholesterolemic animals,baisser sensiblement
same,cholestérolémie,"[2]; normal rats treated 4 weeks, untreated normal rats 0,9-1","0,9-1 g par litre"
same,cholestérolémie,"[2]; normal rats treated 4 weeks, untreated normal rats 2,5","2,5 mmol par 1."
same,mortality,"[3]; 20 rats, 1/5 of the DL50 daily for 30 days",Aucune mort
same,"autopsy, macroscopic state of the organs","[3]; rat, in vivo",aucun organe n'était macroscopiquement modifié à l'exception d'une légère pâleur des thyroïdes
same,"composantes biochimiques principales, glycémie, uricémie, urémie","[3]; rat, in vivo",évoluent dans les limites habituelles à l'espèce
same,formule sanguine,"[3]; rat, in vivo",normale
same,"histologie du foie, rate, rein, thyroïde, surénales","[3]; rat, in vivo",n'a rien révélé d'anormal
same,patchtests,[4],n'était pas allergogène
same,observation of behaviour and growth,[5],aucun trouble de comportement ni de croissance
same,LD50 at 336 h,"[5]; po, solution by oesophageal tube, 12 animals",5.4 mg/kg
same,Poids moyens,"[6]; genetically obese Zucker rats (Obèses), treated, 17,5 µg per 100 g daily, day 7, initial mean weight 135 g",148 g
same,Poids moyens,"[6]; genetically obese Zucker rats (Obèses), treated, 17,5 µg per 100 g daily, day 14, initial mean weight 135 g",168 g
same,Poids moyens,"[6]; genetically obese Zucker rats (Obèses), treated, 17,5 µg per 100 g daily, day 21, initial mean weight 135 g",190 g
same,Poids moyens,"[6]; genetically obese Zucker rats (Obèses), treated, 17,5 µg per 100 g daily, day 28, initial mean weight 135 g",206 g
same,prise de poids,"[6]; genetically obese Zucker rats, 17,5 µg per 100 g body weight",ralentit la prise de poids
same,Poids moyens,"[6]; normal Zucker rats (Témoins), treated, 17,5 µg per 100 g body weight daily by gavage, day 7, initial mean weight 102 g",119 g
same,Poids moyens,"[6]; normal Zucker rats (Témoins), treated, 17,5 µg per 100 g daily, day 14, initial mean weight 102 g",137 g
same,Poids moyens,"[6]; normal Zucker rats (Témoins), treated, 17,5 µg per 100 g daily, day 21, initial mean weight 102 g",152 g
same,Poids moyens,"[6]; normal Zucker rats (Témoins), treated, 17,5 µg per 100 g daily, day 28, initial mean weight 102 g",163 g
same,croissance,"[6]; normal Zucker rats, 17,5 µg per 100 g body weight",ne modifie pas significativement la croissance
same,"tolérance: tension artérielle, rythme cardiaque, transaminases et phosphatases, glucose, urée sanguine, créatinine urinaire",[7],aucun paramètre n'a subi de modification
same,taux de cholestérol sanguin,[8]; [10],notablement été abaissé
same,"transaminases, phosphatases, uricémie, créatinurie",[8]; [10],aucune modification
same,glycémie,"[8]; 6 obese patients, 4 weeks, the patent attributes the effect probably to the diet",a diminué également de manière significative
same,poids,"[8]; obese humans, statement in words",baisse de poids très substantielle
same,POIDS Après (J+30),"[8]; obese patient 1, before (J-0) 115",107
same,POIDS Après (J+30),"[8]; obese patient 2, before (J-0) 108",101
same,POIDS Après (J+30),"[8]; obese patient 3, before (J-0) 97",89
same,POIDS Après (J+30),"[8]; obese patient 4, before (J-0) 103",93
same,POIDS Après (J+30),"[8]; obese patient 5, before (J-0) 85",81
same,POIDS Après (J+30),"[8]; obese patient 6, before (J-0) 111",104
same,tolérance,"[8]; obese volunteers, hospitalised, 0,3 mg daily in 2 oral doses, 4 weeks",parfaite
same,sensibilisation d'ordre allergique,[9],négatif
